Assays:
[1] = Single ascending dose (SAD) study, PK (Example 1 Part 1)
[2] = Columbia-Suicide Severity Rating Scale (C-SSRS); format: in vivo, human; settings: parts 1-3
Protocol: The Columbia-Suicide Severity Rating Scale (C-SSRS) is a validated tool designed to quantify the severity of suicidal ideation and behavior. This scale was administered by individuals who have received training in its administration, as described in further detail at https://cssrs.columbia.edu/the-columbia-scale-c-ssrs/about-the-scale/.

salivary cortisol levels = experiment: Trier Social Stress Test (TSST), salivary cortisol (Example 2); format: in vivo, human
Protocol: (§1) A double-blind, placebo-controlled study was performed in 80 healthy participants to determine the effects of a single dose of Compound 1 in a validated and standardized behavioral challenge, the Trier Social Stress Test (TSST). The TSST is a reliable behavioral model used to examine the neurobiological response to acute stress in humans, whereby an acute stress (and associated acute stress response) is induced under experimentally controlled conditions. The TSST induces stress through public speaking. It incorporates social evaluation and unpredictability, by obliging the person to speak in front of an unresponsive audience and is further followed by a surprise mental arithmetic test. The TSST combines elements of a social-evaluative threat and uncontrollability to produce a consistent and robust physiological and psychological stress response in humans. On the day of the study, the participant was tasked with a speech prompt, for which they had 3 minutes to prepare. The participant was then required to present the speech for 5 minutes to a panel while under the pretense of being recorded. Following the speech, participants were given an unexpected mental arithmetic task. The TSST is more fully described in Allen A et al., Neurobiol. Stress (2017), February; 6:113-126.
(§2) The study included a validation cohort and a randomized cohort. The validation cohort (n=10) was given placebo for the purposes of validating the TSST and study endpoints. The randomized cohort […] were randomized and stratified by sex to placebo or 375 mg of Compound 1 in a 1:1 ratio. The cohorts are described in Table 14. An overview of the TSST study design is also depicted in FIG. 4C.
Compound 1 was formulated in combination with excipients Peceol™ (glyceryl monooleate), Kolliphor® RH40 (macrogolglycerol hydroxystearate) and super-refined sesame oil as a clear to yellow viscous solution. Each gram of formulation contains 300 mg of Compound 1, 189 mg of Peceol™, 336 mg Kolliphor® RH40, and 175 mg of super-refined sesame oil. To prepare the final dosage, the required quantity is manually filled into size 17.5 oblong capsules. The placebo contained vehicle only, i.e., the above formulation without Compound 1.
(§3) The objective of the study was to evaluate the efficacy of Compound 1 vs. placebo in blunting the response to endpoints measured during and after the TSST procedure. The primary efficacy endpoint was the change from baseline (before TSST procedure) to the peak (maximum change) in salivary cortisol levels as measured before, during, and after the TSST procedure. The primary outcome for determining this was salivary cortisol levels. The key secondary outcomes were be the Numerical Rating Scale (NRS) for stress, anxiety, fear, embarrassment, and excitement. Additional secondary outcomes were the State Trait Anxiety Index (STAI), and blood pressure. Safety and tolerability (i.e., incidence, severity, and duration of treatment-emergent adverse events (TEAEs), serious adverse events (SAEs), and incidence of other clinically relevant signs) were also monitored. Prior to the TSST, a post-dose sample was collected for pharmacokinetic analysis.
To normalize for food effects, participants were served a standardized meal to be consumed approximately 30 minutes prior to dosing with Compound 1. Compound 1 was administered with 240 mL of RT water ~3-4 hours prior to the start of the TSST.
Cortisol levels (including, for example, salivary cortisol levels) are a robust and sensitive marker of stress and the stress hormone response. Salivary cortisol concentrations were collected and measured throughout the study, with the primary endpoint being the maximum change from baseline (pre-TSST).

[3] = Body sway (posturography); format: in vivo, human; settings: MAD
Protocol: Body Sway is assessed as a measure of a subject's slight postural movements in order to retain balance either statically in a neutral position or dynamically while in motion. Body Sway is typically measured by total displacement of the center of body mass relative to the base of support over time. Posturography is an objective, sensitive, reliable, and non-invasive method designed to assess the effects of drugs and alcohol on body sway and vigilance. Body sway is recorded using a computerized force-platform. Using specific positioners, bare feet subjects are asked to stand still and motionless, looking at a cue placed in front of them. Measurement of body sway (one minute with eyes open and one minute with eyes closed) is recorded as recommended by the International Society of Postuography. The length and area of the postural oscillations are then calculated.

[4] = TSST study safety and tolerability (Example 2); format: in vivo, human
Protocol: as §1, §2, §3

Q: For CCCCCCCC(=O)OCC(COC(=O)CCCCCCC)OC(=O)CC(C)CC(=O)OCOC(=O)O[C@@H]1CC[C@@]2(C)[C@@H](CC[C@@H]3[C@@H]2CC[C@]2(C)[C@@H](C(C)=O)CC[C@@H]32)C1 (stereo partly drawn) [Compound 1], which “dose proportionality of mean plasma allopregnanolone and combined allopregnanolone concentrations” value ([1]; doses up to 560 mg) is on record?
A: increased at a dose proportional rate

Q: What about the oral bioavailability ([1]; human, oral) of the same compound?
A: high oral bioavailability

Q: And the “dose proportionality of several PK parameters” value ([1]; range of 750 to 1000 mg)?
A: greater than dose-proportional increase

Q: And the “maximal concentrations and exposure values, combined allopregnanolone compared to allopregnanolone” value ([1]; single ascending doses)?
A: at least 10 times higher

Q: And the “suicidal ideation or suicidal behavior” value [2]?
A: No subjects across all parts (1-3) reported any suicidal ideation or suicidal behavior

Q: What about the “decrease in salivary cortisol levels versus placebo, maximum non-transformed mean” value (salivary cortisol levels; 375 mg) of the same compound?
A: ~ 2.2 ×

Q: And the “time during which blunting of salivary cortisol was significantly different from placebo” value (salivary cortisol levels; 375 mg)?
A: up to 30 minutes post-end of TSST

Q: And the “treatment effect size versus placebo, Cohen's d” value (salivary cortisol levels; 375 mg)?
A: 0.72

Q: And the “reduction in salivary cortisol levels post-TSST” value (salivary cortisol levels; 375 mg, 10 minutes post-TSST)?
A: 62.8%

Q: What about the “reduction in salivary cortisol levels post-TSST” value (salivary cortisol levels; 375 mg, 60 minutes post-TSST) of the same compound?
A: 45.5%

Q: And the “mean reduction in salivary cortisol levels post-TSST” value (salivary cortisol levels; 375 mg, across all time points)?
A: 54.4%

Q: What about the “blunting of increases in salivary cortisol levels, LSMean change from baseline (pre-TSST)” value (salivary cortisol levels; single 375 mg oral dose ~3-4 hours before TSST) of the same compound?
A: partial blunting

Q: What about the “effects on body sway” value ([3]; day 1) of the same compound?
A: Slight effects

Q: What about the “effects on body sway” value ([3]; day 7) of the same compound?
A: absent

Q: What about the “tolerability in the TSST study” value ([4]; single 375 mg dose) of the same compound?
A: well tolerated

Q: What about the TEAE dizziness ([4]; single 375 mg, placebo 3%) of the same compound?
A: 20%

Q: What about the TEAE headache ([4]; single 375 mg, placebo 7.7%) of the same compound?
A: 7.3%

Q: And the TEAE somnolence ([4]; single 375 mg, placebo 13%)?
A: 29%

From patent US20260284079A1, “LIPID PRODRUGS OF ALLOPR[…] USES THEREOF” (Seaport Therapeutics, Inc., priority 2023, published 2026)
